Laboratory results reported in PubChem BioAssay (NCI).
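Following 48 hours of exposure in 96-well plates, responses at five concentrations were used to interpolate endpoints linearly. GI50 is the concentration that inhibits growth by half. TGI is the concentration that stops growth completely.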

Assays:
Assay in all cases: NCI-60 cell line screen, 48 h
CCRF-CEM leukemia = test system: CCRF-CEM leukemia
HCT-116 colon = test system: HCT-116 colon
HCT-15 colon = test system: HCT-15 colon
HOP-62 NSCLC = test system: HOP-62 NSCLC
HS 578T breast = test system: HS 578T breast
K-562 leukemia = test system: K-562 leukemia
M14 melanoma = test system: M14 melanoma
MOLT-4 leukemia = test system: MOLT-4 leukemia
SW-620 colon = test system: SW-620 colon
TK-10 renal = test system: TK-10 renal

SMILES	GI50 (CCRF-CEM leukemia) [µM]	TGI (CCRF-CEM leukemia) [µM]	GI50 (HCT-116 colon) [µM]	TGI (HCT-116 colon) [µM]	GI50 (HCT-15 colon) [µM]	TGI (HCT-15 colon) [µM]	GI50 (HOP-62 NSCLC) [µM]	TGI (HOP-62 NSCLC) [µM]	GI50 (HS 578T breast) [µM]	TGI (HS 578T breast) [µM]	GI50 (K-562 leukemia) [µM]	TGI (K-562 leukemia) [µM]	GI50 (M14 melanoma) [µM]	TGI (M14 melanoma) [µM]	GI50 (MOLT-4 leukemia) [µM]	TGI (MOLT-4 leukemia) [µM]	GI50 (SW-620 colon) [µM]	TGI (SW-620 colon) [µM]	TGI (TK-10 renal) [µM]	GI50 (TK-10 renal) [µM]
O=S(=O)(Nc1ncccn1)c1ccc(N=Nc2ccc(O)c3ncccc23)cc1	3.29	24.8	4.2	40.4	4.05	22.5	9.15	76.1	3	13.1	3.23	61.2	8.59	26.6	5.68	51.2	5.67	33.7		
COc1ccc(Cn2c(C)nc3c2C(=O)c2ccccc2C3=O)cc1		37.3		13		> 75		51.7				30.1		23.5		30		> 75	> 75	
[O-]/[N+](=C\c1ccccc1)[C@H](COCc1ccccc1)c1ccccc1		> 100		> 100				> 100				> 100				> 100		> 100	> 100	
O=C(O)c1ccccc1Cc1ccco1				> 100		> 100		> 100				> 100		> 100		> 100		> 100	> 100	
N#Cc1cc(C#N)c(Cl)nc1N		> 10		> 10		> 10		> 10		> 10		> 10				> 10		> 10	> 10	
CC1=NN(C(=O)c2ccccc2O)C(=O)/C1=C/c1ccc([N+](=O)[O-])cc1	0.259		0.328		0.932					> 100	0.216		3.01	40.7	0.35	> 100	3.15	> 100	> 100	4.83
CCOc1ccc(NC(=O)CC2SC(=Nc3ccc(Cl)cc3)NC2=O)cc1 (centres undefined)		43.5				> 100		> 100				76.4		> 100		> 100		> 100	> 100	
COc1cc(-c2nn3c(/C=C4/C(=O)Nc5ccccc54)c(-c4ccc(C)cc4)nc3s2)cc(OC)c1OC			2.59	13.8	2.68	> 100	4.14	23.3	0.505	7.49									4.38	1.69
O=[As](O)(O)c1ccc(NCc2ccccc2)cc1				> 100		> 100		> 100		> 100		> 100		> 100		> 100			> 100	
O=C(O)CN(c1ccccc1)S(=O)(=O)c1ccc(NC(=O)c2ccccc2)cc1		> 100				> 100						> 100		> 100		> 100		> 100	> 100	
O=C(CC1=Nc2nnc(-c3nnc4n3C(=O)C(CC(=O)c3cccnc3)=N4)n2C1=O)c1cccnc1		> 100		> 100		> 100		> 100				> 100		> 100		> 100		> 100	> 100	
COC(=O)[C@@H](NC(=O)NC(=O)NC(=O)CI)C(C)C			12.2	24.6	1.66	3.16	18.3	33.7	26.4	74.6			3.34	13.1	2.58	7.05	2.04	4.19	20.5	7.65
C=CCC1OC(C)(C)Oc2ccc(OCOCCOC)cc21 (centres undefined)				> 100		> 100		> 100				> 100		> 100		> 100		> 100	> 100	
COc1ccc(S(=O)(=O)NC(C)C(=O)O)cc1 (centres undefined)		> 100				> 100						> 100		> 100		> 100		> 100	> 100	
N=C(c1ccccc1)N(c1ccccc1)c1ccccc1				> 100				> 100						> 100				> 100	> 100	
Nc1nc(CCC(=O)Nc2cccc(C(F)(F)F)c2)cc(-c2cccc3ccccc23)n1		> 100		> 100		> 100		> 100				> 100		> 100		> 100		> 100	> 100	
FC(F)(F)C1(Cl)C(c2ccccc2)=C1c1ccccc1		12.1		27.4		27.8		32.7				26.2		25.6		> 100		27	35.4	
C1OCC2S[C@@H]3COCO[C@@H]3C2O1 (some centres undefined)		> 100		> 100		> 100		> 100				> 100		> 100		> 100			> 100	
COc1cc2c(cc1O)C=NCC2		> 100		> 100		> 100						> 100		> 100		> 100		> 100	> 100	
CC12CC3C(CC1SCC(=O)O2)C3(C)C (centres undefined)		> 100		> 100		> 100						> 100		> 100		> 100			> 100	
COc1cc(/C(Cl)=C/C=C/C(=O)c2c(C)[n+]([O-])c3ccc(Cl)cc3[n+]2[O-])cc(OC)c1OC	1.62	> 50	2.12	8.98	7.35	> 50	7.68	24.4	6.47	35.7	1.43	6.24	3.68	40.4	1.35	3.56	2.24	9.78		
CCCCCCCCCCCOC(=S)NC(C)C		61.4		31.3		31.8		36.6				46.4		60.6		36.2		30.2	86.1	

SMILES	GI50 (CCRF-CEM leukemia) [µM]	TGI (CCRF-CEM leukemia) [µM]	GI50 (HCT-116 colon) [µM]	TGI (HCT-116 colon) [µM]	GI50 (HCT-15 colon) [µM]	TGI (HCT-15 colon) [µM]	GI50 (HOP-62 NSCLC) [µM]	TGI (HOP-62 NSCLC) [µM]	GI50 (HS 578T breast) [µM]	TGI (HS 578T breast) [µM]	GI50 (K-562 leukemia) [µM]	TGI (K-562 leukemia) [µM]	GI50 (M14 melanoma) [µM]	TGI (M14 melanoma) [µM]	GI50 (MOLT-4 leukemia) [µM]	TGI (MOLT-4 leukemia) [µM]	GI50 (SW-620 colon) [µM]	TGI (SW-620 colon) [µM]	TGI (TK-10 renal) [µM]	GI50 (TK-10 renal) [µM]
C1=C(c2ccccc2)CN(c2ccccc2)OC1		> 100				> 100		> 100				> 100		> 100		> 100		> 100	> 100	
O=C1OC(=O)c2c1c(-c1ccccc1)cn2-c1ccc(Cl)cc1		> 100		> 100		> 100		> 100				> 100		> 100		> 100		> 100	> 100	
C#CCC[C@@H]1O[C@@]1(C)CC/C=C(\C)CC/C=C/C=O		64.8				> 100		> 100				54		48.3		52.9		51.4		
COc1ccc(/C=C2\CN(C)Cc3c2nc(N)nc3-c2ccc(OC)cc2)cc1		> 100		> 100				> 100				> 100		> 100		> 100		> 100	> 100	
COc1ccc(/C(=N/NC(N)=O)C2(O)C(=O)Nc3ccc([N+](=O)[O-])cc32)cc1 (centres undefined)		32.3		36.1		46.1		> 100				58.8		31.1		50		50.8		
Cc1ccc(NCCCN2CCN(CCCNc3ccc(C)c4sc5ccccc5c(=O)c34)CC2)c2c(=O)c3ccccc3sc12		> 100		> 100		> 100		> 100		79.6		> 100		> 100		> 100		> 100		
COc1cc(CCc2cccnc2)cc(OC)c1OC		> 100		> 100		> 100		> 100				> 100		> 100		> 100		> 100	> 100	
N#C/C(=C\c1ccccc1O)C(N)=O		83.1		> 100		> 100		> 100				> 100		> 100		> 100		> 100	> 100	
CCOc1ccccc1NC(=O)CCC(=O)OC		> 66.7		> 100		> 100		> 100				> 87.8		> 100		> 100		> 60.5	> 100	
CC(C)(C)OC(=O)NCCNC1=CC(=O)c2nc3ccccc3c3ccnc1c23			22.3	> 100	19.3	47.9	24.4	> 100	25.5	73.8	0.131	> 100	18.5	61.1			15.1	37.4	99.7	32.4
CC1=CCC[C@@]2(C)C(CC[C@@H]2C(C)/C=C/C(C)C)c2ccc(cc2C(=O)O)C[C@@H](O)CC1 (some centres undefined)		20.8		20.7		18.5		36.5				26.4		34		28		32.2	25.1	
O=P([O-])(O)OP(=O)([O-])O.[NH-][C@H]1CCCC[C@@H]1[NH-].[OH-].[OH-].[Pt+4]	> 100	> 100	37.1	> 100	39.9	> 100	19.3	35.4	36.1	93.1	92.9	> 100	40.3	> 100	> 100	> 100	55.8	> 100		
CC1=CC2CC(C)=C(CC[C@]3(C)CC[C@H]([C@@H](C)C(=O)O)OO3)C(C)(C)C2CC1 (some centres undefined)		0.493		0.943		2		3.41				0.471		2.67				0.354	3.15	
C[N+]1(C)CCCC1C(=O)[O-] (centres undefined)		> 100		> 100		> 100		> 100				> 100		> 100		> 100		> 100	> 100	
CO/C(=N\N=C\c1cc(OC)ccc1OC)c1ccncc1		> 10		> 10		> 10		> 10				> 10				> 10		> 10	> 10	
CC(=O)N1CCN(C2=Nc3ccccc3CO2)C1=S	32.9	> 100	89.8	> 100	57.8	> 100	> 100	> 100			46.5	> 100	51.3	> 100	41.9	> 100	92.5	> 100	> 100	> 100
O=C(Nc1c(O)[nH]c(=S)[nH]c1=O)c1ccccn1		> 100		> 100		> 100		> 100				> 100		> 100		> 100		> 100	> 100	
CC1CC2C3CC(F)C4=CC(=O)C=CC4(C)C3(F)C(O)CC2(C)C1(O)C(=O)COC(=O)C(C)(C)C (centres undefined)		> 100		> 100		> 100		> 100				> 100		> 100		> 100		> 100	> 100	
S=c1sc2c(Cl)ncnc2n1-c1ccccc1				18.6		28.4		29.3						26.3		56.1		35.1	33.2	
CCN(CC)CCNC(=O)c1ccccc1NC(=O)C(=O)Nc1ccccc1C(=O)NCCN(CC)CC		71.9		43.3		> 100		> 100				42.1		33.9		74.4		42	> 100	
O=C1c2ccccc2C2(O)Nc3cc(O)ccc3C12O (centres undefined)		> 100		> 100		> 100		> 100				> 100		> 100		> 100		> 100	> 100	
CC(=O)OCC1OC(Nc2[nH]c(=O)n(C)c(=O)c2-c2csc(N)n2)C(OC(C)=O)C(OC(C)=O)C1OC(C)=O (centres undefined)		> 100		> 100		> 100		> 100				> 100		> 100		> 100		> 100	> 100	
